Assay results reported in PubChem BioAssay (NCI).
Where “and” joins values, the source holds several entries; their conditions need not be identical. Equal entries are not always repeated.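 Test compounds were applied to cells in 96-well plates for 48 hours at 5 doses. At the GI50, growth is halved. TGI marks complete inhibition of growth.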

How the values were obtained:
Experiment in all cases: NCI tumour cell line growth inhibition, 48 h
EKVX NSCLC = tested on: EKVX NSCLC
HL-60(TB) leukemia = tested on: HL-60(TB) leukemia
HOP-62 NSCLC = tested on: HOP-62 NSCLC
K-562 leukemia = tested on: K-562 leukemia
OVCAR-8 ovarian = tested on: OVCAR-8 ovarian
SK-OV-3 ovarian = tested on: SK-OV-3 ovarian
SNB-19 CNS = tested on: SNB-19 CNS
UO-31 renal = tested on: UO-31 renal
HT29 colon = tested on: HT29 colon
LOX IMVI melanoma = tested on: LOX IMVI melanoma
MALME-3M melanoma = tested on: MALME-3M melanoma
RXF 393 renal = tested on: RXF 393 renal
UACC-62 melanoma = tested on: UACC-62 melanoma

Row | SMILES | TGI (EKVX NSCLC) | TGI (HL-60(TB) leukemia) [µM] | TGI (HOP-62 NSCLC) [µM] | TGI (K-562 leukemia) [µM] | TGI (OVCAR-8 ovarian) [µM] | TGI (SK-OV-3 ovarian) [µM] | TGI (SNB-19 CNS) [µM] | TGI (UO-31 renal) [µM] | TGI (HT29 colon) [µM] | TGI (LOX IMVI melanoma) [µM] | TGI (MALME-3M melanoma) [µM] | TGI (RXF 393 renal) | TGI (UACC-62 melanoma) [µM] | GI50 (EKVX NSCLC) [µM] | GI50 (K-562 leukemia) [µM] | GI50 (OVCAR-8 ovarian) [µM] | GI50 (RXF 393 renal) [µM] | GI50 (SK-OV-3 ovarian) [µM] | GI50 (SNB-19 CNS) [µM] | GI50 (UACC-62 melanoma) [µM]
1 | CC(=O)Nc1ccc(Sc2nnc(NC(C)=O)s2)cc1 | > 100 µM | > 100 | > 100 | > 100 | > 100 | > 100 | > 100 | > 100 |  |  |  |  |  |  |  |  |  |  |  | 
2 | O=[N+]([O-])c1cccc(N=Nc2c(O)ccc3ccccc23)c1 | > 100 µM |  | > 100 | > 100 | > 100 | > 100 | 75.5 | > 100 | > 100 | > 100 | > 100 | > 100 µM | > 100 |  |  |  |  |  |  | 
3 | COc1cc(C=O)cc(O)c1O | > 100 µM | > 100 | > 100 | > 100 | > 100 | > 100 | > 100 | > 100 | > 100 | > 100 | > 100 |  | > 100 |  |  |  |  |  |  | 
4 | O=C1c2ccccc2C(=O)N1CC(CN1C(=O)c2ccccc2C1=O)(C(=O)OCc1ccccc1)C(=O)OCc1ccccc1 |  | > 100 | > 100 |  | > 100 | > 100 | > 100 | > 100 | > 100 |  | > 100 | > 100 µM | > 100 |  |  |  |  |  |  | 
5 | O=c1oc2ccc([N+](=O)[O-])cc2cc1Br | > 100 µM | > 100 | > 100 | > 100 | > 100 |  | > 100 | > 100 | > 100 | > 100 | > 100 | > 100 µM | > 100 |  |  |  |  |  |  | 
6 | Cn1c(=O)c(Cl)c(N=[N+]=[N-])c2ccccc21 | > 100 µM |  | > 100 | > 100 | > 100 | > 100 | > 100 | > 100 | > 100 | > 100 | > 100 | > 100 µM | > 100 |  |  |  |  |  |  | 
7 | O=[N+]([O-])C(=C/c1cccs1)/C(=C\c1cccs1)[N+](=O)[O-] | > 32.4 µM | 0.139 | 5.39 | > 100 | 8.06 | 8.04 | 5.16 |  | 6.13 | 0.688 | 4.82 | 0.486 µM | 2.53 |  |  |  |  |  |  | 
8 | C=CCCCCCCCCC(=O)O | 255 µM | 231 | 168 | 426 | 283 | 294 | 362 | 162 | 227 | 259 | 302 | 207 µM | 190 |  |  |  |  |  |  | 
9 | CCOC(=O)C(OP(=O)(OCC)OCC)C(F)(F)F (stereo unspecified) | > 100 µM | > 100 | > 100 | > 100 |  | > 100 | > 100 | > 100 | > 100 | > 100 | > 100 | > 100 µM | > 100 |  |  |  |  |  |  | 
10 | COc1cccc2c1C(=O)c1c(O)c3c(c(O)c1C2=O)C[C@@](O)(C(=O)CO)CC3OC1CC(NCCCC(OC(C)=O)OC(C)=O)C(O)C(C)O1 (stereo partly specified) | 0.00618 µM and 0.00119 µM | 0.0058 | 0.00461 | 0.000729 | 0.0119 | > 1 |  | 0.00427 |  | 0.000743 | 0.00452 | 0.00328 µM and 0.000813 µM |  | 0.000305 | < 0.0001 | < 0.0001 | 0.000198 | 0.000298 | 0.000202 | < 0.0001
11 | CCN1CCC(O)(c2ccc(O)cc2)C(C(=O)c2ccc(O)cc2)C1 (stereo unspecified) | 51.1 µM | > 100 | > 100 | 33.8 | > 100 | > 100 | > 100 | 36 | 64.9 | 27.4 | 38.8 | 30.7 µM | 30.9 |  |  |  |  |  |  | 
12 | CN(C(=O)c1ccc(OCCCC(=O)O)c(Cl)c1Cl)C1CCCC1 | > 100 µM | > 100 | > 100 | > 100 | > 100 | > 100 | > 100 | > 100 | > 100 | > 100 | > 100 | > 100 µM | > 100 |  |  |  |  |  |  | 
13 | COC1C(O)C(C)OC(OC2CCC3(C)C(CCC4C3C(O)CC3(C)C(C5=CC(=O)OC5)CCC43O)C2)C1O (stereo unspecified) | 0.536 µM | 0.665 | 0.473 | 5.28 | 1.67 | 0.905 | 2.04 |  | 2.23 | 0.775 | 0.667 | 0.237 µM | 1.25 |  |  |  |  |  |  | 
14 | CNC(=O)NS(=O)(=O)c1ccc(C)cc1 |  | > 100 | > 100 | > 100 | > 100 | > 100 | > 100 | > 100 | > 100 | > 100 | > 100 | > 100 µM | > 100 |  |  |  |  |  |  | 
15 | CC1=C2C3OC(=O)C(C)C3CCC2(C)C=CC1=Nc1ccccc1 (stereo unspecified) | > 100 µM | > 100 | > 100 | > 100 | > 100 | > 100 | > 100 | > 100 | > 100 | > 100 | > 100 | > 100 µM | > 100 |  |  |  |  |  |  | 
16 | Cc1ccc(-c2cc(-c3ccco3)c(C#N)c(=O)n2C2OC(CO)C(O)C(O)C2O)cc1 (stereo unspecified) | > 100 µM | > 100 | 91.4 | > 100 | > 100 | 59.8 | > 100 | > 100 | > 100 | > 100 | 78.2 | > 100 µM | > 100 |  |  |  |  |  |  | 
